Assay [1] has as its target T1, His tagged PTPN2 (TC45) protein (Homo sapiens, UniProt P17706).
T1 construct: made in house
T1 sequence (P17706 with tags, fused parts or gaps isoform P17706-2): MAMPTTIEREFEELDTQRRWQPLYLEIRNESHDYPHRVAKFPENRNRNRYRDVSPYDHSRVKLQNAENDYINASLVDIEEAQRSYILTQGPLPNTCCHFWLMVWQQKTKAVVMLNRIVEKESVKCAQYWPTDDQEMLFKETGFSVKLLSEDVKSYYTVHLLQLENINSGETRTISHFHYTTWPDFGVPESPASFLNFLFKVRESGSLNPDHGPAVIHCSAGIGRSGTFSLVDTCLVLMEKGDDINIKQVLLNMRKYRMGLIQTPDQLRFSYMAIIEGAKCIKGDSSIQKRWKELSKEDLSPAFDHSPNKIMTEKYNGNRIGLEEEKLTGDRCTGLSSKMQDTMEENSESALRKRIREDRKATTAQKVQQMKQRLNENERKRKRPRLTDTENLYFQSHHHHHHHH
The assay can be described thus: Mobility shift assay (MSA) to determine potency of PTPN2 inhibitors. It is filed as biochemical. The note with it: 0.5 nM enzyme, 2 μM substrate. In a few lines:
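His-tagged human PTPN2 (TC45), 0.5 nM, preincubated 10 min at room temperature with compound (12-point, 1:3 dilutions) in HEPES pH 7.5 buffer with EGTA, EDTA, Tween 20 and DTT. Then 2 μM OG488-labelled phospho-insulin-receptor peptide was added for 10 min and quenched. % conversion was read by mobility shift, and IC50 came from % inhibition.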

Assay [2] concerns the target T2, His tagged full-length PTPN1 protein (Homo sapiens, UniProt P18031).
T2 construct: made in house
T2 sequence (P18031 with tags, fused parts or gaps): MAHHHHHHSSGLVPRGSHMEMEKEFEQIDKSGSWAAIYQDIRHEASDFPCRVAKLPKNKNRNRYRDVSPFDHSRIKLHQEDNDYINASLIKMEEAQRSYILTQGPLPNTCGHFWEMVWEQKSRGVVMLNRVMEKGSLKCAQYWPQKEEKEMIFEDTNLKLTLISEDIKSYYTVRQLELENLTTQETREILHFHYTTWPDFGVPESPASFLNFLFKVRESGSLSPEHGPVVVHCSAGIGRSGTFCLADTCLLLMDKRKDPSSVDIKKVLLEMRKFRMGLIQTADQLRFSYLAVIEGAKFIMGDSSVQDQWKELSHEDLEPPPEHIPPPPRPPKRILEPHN
The assay can be described thus: Mobility shift assay (MSA) to determine potency of PTPN1 inhibitors. The assay is classed as biochemical. The note with it: 0.5 nM enzyme, 2 μM substrate. In a few lines: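 His-tagged full-length human PTPN1 (0.5 nM) preincubated with compound 10 min at room temperature in pH 7.5 HEPES buffer with EGTA, EDTA, Tween 20 and DTT. Dephosphorylation of 2 μM fluorescent phospho-insulin-receptor peptide over 10 min measured by mobility shift. IC50 from % inhibition across a 12-point, 1:3 dilution series.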

In the case of `[2H]C1([2H])C(=O)NS(=O)(=O)N1c1c(O)cc2c(c1F)C[C@H](NCCC(C)C)CC2` [Compound 327, 5-{(7R)-1-fluoro-3-hydroxy-7-[(3-methylbutyl)amino]-5,6,7,8-tetrahydronaphthalen-2-yl}(4,4-^2H2)-1λ^6,2,5-thiadiazolidine-1,1,3-trione], the IC50 in assay [1] is under 1 nM; in assay [2] it was 1 to 10 nM.

On to `[2H]C1([2H])Cc2cc(O)c(N3CC(=O)NS3(=O)=O)c(F)c2C([2H])([2H])C1([2H])NCCC(C)C` (stereo not shown) [Compound 340, 5-{1-fluoro-3-hydroxy-7-[(3-methylbutyl)amino](6,6,7,8,8-^2H5)-5,6,7,8-tetrahydronaphthalen-2-yl}-1λ^6,2,5-thiadiazolidine-1,1,3-trione], for which the IC50 in assay [1] was under 1 nM; in assay [2], 1 to 10 nM.

In the case of `Cn1cncc1CN[C@@H]1CCc2cc(O)c(N3CC(=O)NS3(=O)=O)c(F)c2C1` [Compound 357, 5-[(7R)-1-fluoro-3-hydroxy-7-{[(1-methyl-1H-imidazol-5-yl)methyl]amino}-5,6,7,8-tetrahydronaphthalen-2-yl]-1λ^6,2,5-thiadiazolidine-1,1,3-trione], the IC50 in assay [1] and in assay [2] was 10 to 100 nM in each case.

Consider `O=C1CN(c2c(O)cc3c(c2F)C[C@H](NCCC2(CO)CCC2)CC3)S(=O)(=O)N1` [Compound 338, 5-[(7R)-1-fluoro-3-hydroxy-7-({2-[1-(hydroxymethyl)cyclobutyl]ethyl}amino)-5,6,7,8-tetrahydronaphthalen-2-yl]-1λ^6,2,5-thiadiazolidine-1,1,3-trione], for which the IC50 was under 1 nM in assay [1] and 1 to 10 nM in assay [2].

Regarding `[2H]C([2H])([2H])C([2H])([2H])C([2H])([2H])C([2H])([2H])NC1CCc2cc(O)c(N3CC(=O)NS3(=O)=O)c(F)c2C1` (stereo not shown) [Compound 336, 5-{7-[(^2H9)butylamino]-1-fluoro-3-hydroxy-5,6,7,8-tetrahydronaphthalen-2-yl}-1λ^6,2,5-thiadiazolidine-1,1,3-trione], the IC50 in assay [1] and in assay [2] was 1 to 10 nM throughout.

Regarding `CC(C)CNCC1(O)CCc2cc(O)c(N3CC(=O)NS3(=O)=O)c(F)c2C1` (stereo not shown) [Compound 339, 5-(1-fluoro-3,7-dihydroxy-7-{[(2-methylpropyl)amino]methyl}-5,6,7,8-tetrahydronaphthalen-2-yl)-1λ^6,2,5-thiadiazolidine-1,1,3-trione], the IC50 in assay [1] and in assay [2] was 10 to 100 nM each time.

In the case of `NCC1(O)CCc2cc(O)c(N3CC(=O)NS3(=O)=O)c(F)c2C1` (stereo not shown) [Compound 337, 5-[7-(aminomethyl)-1-fluoro-3,7-dihydroxy-5,6,7,8-tetrahydronaphthalen-2-yl]-1λ^6,2,5-thiadiazolidine-1,1,3-trione], the IC50 in assay [1] and in assay [2] was 10 to 100 nM each time.

Turning to `O=C1CN(c2c(O)cc3c(c2F)C[C@H](NCC2CC2(F)F)CC3)S(=O)(=O)N1` (stereo partly drawn) [Compound 362, 5-[(7R)-7-{[(2,2-difluorocyclopropyl)methyl]amino}-1-fluoro-3-hydroxy-5,6,7,8-tetrahydronaphthalen-2-yl]-1λ^6,2,5-thiadiazolidine-1,1,3-trione], the IC50 in assay [1] and in assay [2] was 10 to 100 nM each time.

Take `Cc1noc(C)c1CCN1Cc2c(cc(O)c(N3CC(=O)NS3(=O)=O)c2F)C(F)(F)C1` [Compound 306]: the IC50 in assay [1] and in assay [2] was over 100 nM in each case.

As for `C[C@H]1C[C@@H](N)Cc2c1cc(O)c(N1CC(=O)NS1(=O)=O)c2F` [Compound 398, 5-[(5S,7R)-7-amino-1-fluoro-3-hydroxy-5-methyl-5,6,7,8-tetrahydronaphthalen-2-yl]-1λ^6,2,5-thiadiazolidine-1,1,3-trione], the IC50 in assay [1] and in assay [2] was 10 to 100 nM throughout.

Regarding `CC(C)OCCN1CCc2cc(O)c(N3CC(=O)NS3(=O)=O)c(F)c2C1` [Compound 233], the IC50 in assay [1] was over 100 nM; in assay [2] it was 10 to 100 nM.

Consider `Cc1nn(C)c(C)c1CN1CC2(CC(N3CCc4cc(O)c(N5CC(=O)NS5(=O)=O)c(F)c4C3)C2)C1` [Compound 237], for which the IC50 in assay [1] and in assay [2] was over 100 nM in each case.

With `CC(C)(CCN)CCN[C@@H]1CCc2cc(O)c(N3CC(=O)NS3(=O)=O)c(F)c2C1` [Compound 374, 5-{(7R)-7-[(5-amino-3,3-dimethylpentyl)amino]-1-fluoro-3-hydroxy-5,6,7,8-tetrahydronaphthalen-2-yl}-1λ^6,2,5-thiadiazolidine-1,1,3-trione], the IC50 in assay [1] was 1 to 10 nM; in assay [2], 10 to 100 nM.

Turning to `COCCN1CCc2cc(O)c(N3CC(=O)NS3(=O)=O)c(F)c2C1` [Compound 216], the IC50 in assay [1] and in assay [2] was over 100 nM in each case.

As for `O=C1CN(c2c(O)cc3c(c2F)C(=O)NCC3)S(=O)(=O)N1` [Compound 388, 5-(8-fluoro-6-hydroxy-1-oxo-1,2,3,4-tetrahydroisoquinolin-7-yl)-1λ^6,2,5-thiadiazolidine-1,1,3-trione], the IC50 in assay [1] and in assay [2] was over 100 nM in each case.

With `CC(C)CCCN1CCc2cc(O)c(N3CC(=O)NS3(=O)=O)c(F)c2C1` [Compound 145], the IC50 in assay [1] and in assay [2] was 10 to 100 nM each time.

Take `O=C1CN(c2c(O)cc3c(c2F)CC(CNCCCC2CC2)CC3)S(=O)(=O)N1` (stereo not shown) [Compound 394, 5-(7-{[(3-cyclopropylpropyl)amino]methyl}-1-fluoro-3-hydroxy-5,6,7,8-tetrahydronaphthalen-2-yl)-1λ^6,2,5-thiadiazolidine-1,1,3-trione]: the IC50 in assay [1] and in assay [2] was 10 to 100 nM throughout.

As to `COCCCN[C@@H]1CCc2cc(O)c(N3CC(=O)NS3(=O)=O)c(F)c2C1` [Compound 363, 5-{(7R)-1-fluoro-3-hydroxy-7-[(3-methoxypropyl)amino]-5,6,7,8-tetrahydronaphthalen-2-yl}-1λ^6,2,5-thiadiazolidine-1,1,3-trione], the values for the IC50 in assay [1] and in assay [2] were 1 to 10 nM and 10 to 100 nM, respectively.

For the molecule `O=C1CN(c2c(O)cc3c(c2F)CC(CNCC2CC2)CC3)S(=O)(=O)N1` (stereo not shown) [Compound 399, 5-(7-{[(cyclopropylmethyl)amino]methyl}-1-fluoro-3-hydroxy-5,6,7,8-tetrahydronaphthalen-2-yl)-1λ^6,2,5-thiadiazolidine-1,1,3-trione], the IC50 in assay [1] and in assay [2] was 10 to 100 nM each time.

On to `CC(C)(C)OC(=O)N1CCc2cc(O)c(N3CC(=O)NS3(=O)=O)c(F)c2C1` [Compound 221], for which the IC50 in assay [1] lay in the range of 10 to 100 nM; in assay [2] it was 1 to 10 nM.

Regarding `Cn1ccc(CN[C@@H]2CCc3cc(O)c(N4CC(=O)NS4(=O)=O)c(F)c3C2)c1` [Compound 346, 5-[(7R)-1-fluoro-3-hydroxy-7-{[(1-methyl-1H-pyrrol-3-yl)methyl]amino}-5,6,7,8-tetrahydronaphthalen-2-yl]-1λ^6,2,5-thiadiazolidine-1,1,3-trione], the IC50 in assay [1] lay in the range of 1 to 10 nM; in assay [2], 10 to 100 nM.

`O=C1CN(c2c(O)cc3c(c2F)C[C@H](NCc2ccnnc2)CC3)S(=O)(=O)N1` [Compound 368, 5-[(7R)-1-fluoro-3-hydroxy-7-{[(pyridazin-4-yl)methyl]amino}-5,6,7,8-tetrahydronaphthalen-2-yl]-1λ^6,2,5-thiadiazolidine-1,1,3-trione]: the IC50 in assay [1] and in assay [2] was 10 to 100 nM in each case.

In the case of `CC(C)CCN1CCc2cc(O)c(N3CC(=O)NS3(=O)=O)c(F)c2C1` [Compound 220], the IC50 in assay [1] and in assay [2] was 10 to 100 nM each time.
